Test results from publication PMC7290441 (Viruses, 2020).
Where a name gives a salt, the structure may show the parent alone. Read-outs that look alike come from different tables or passages of the source.

Columns and labels:
[1] = Cytotoxicity to mock-infected MDCK cells (MTT); conditions: dog
[2] = system: A/Hong Kong/8/1968 (H3N2); test: microbe, parasite or virus in culture; conditions: Influenza A virus, H3N2, MDCK, 72 h, read-out: EC50 against A/Hong Kong/8/1968 (H3N2)
B/Lee/40 [3] = test: microbe, parasite or virus in culture; conditions: Influenza B virus, MDCK, 72 h, read-out: EC50 against B/Lee/40
[4] = system: A/Puerto Rico/8/1934 (H1N1); test: microbe, parasite or virus in culture; conditions: Influenza A virus, H1N1, MDCK, 72 h, read-out: EC50 against A/Puerto Rico/8/1934 (H1N1)
B/Brisbane/60/2008 [5] = test: microbe, parasite or virus in culture; conditions: Influenza B virus, MDCK, 72 h, read-out: EC50 against B/Brisbane/60/2008
A/Perth/16/2009 (H3N2) [6] = test: microbe, parasite or virus in culture; conditions: Influenza A virus, H3N2, MDCK, 72 h, read-out: EC50 against A/Perth/16/2009 (H3N2)
[7] = system: A/Brisbane/59/2007 (H1N1); test: microbe, parasite or virus in culture; conditions: Influenza A virus, H1N1, MDCK, 72 h, read-out: EC50 against A/Brisbane/59/2007 (H1N1)
[8] = system: A/Brisbane/10/2007 (H3N2); test: microbe, parasite or virus in culture; conditions: Influenza A virus, H3N2, MDCK, 72 h, read-out: EC50 against A/Brisbane/10/2007 (H3N2)
[9] = system: A/California/7/2009 (H1N1); test: microbe, parasite or virus in culture; conditions: Influenza A virus, H1N1, MDCK, 72 h, read-out: EC50 against A/California/7/2009 (H1N1)
[10] = system: A/Hong Kong/8/1968 (H3N2)
A/Seoul/11/1988 (H3N2) [11] = test: microbe, parasite or virus in culture; conditions: Influenza A virus, H3N2, MDCK, 72 h, read-out: EC50 against A/Seoul/11/1988 (H3N2)
[12] = system: A/Brisbane/59/2007 (H1N1)
[13] = system: A/Victoria/361/2011-like (H3N2); test: microbe, parasite or virus in culture; conditions: Influenza A virus, H3N2, MDCK, 72 h, read-out: EC50 against A/Victoria/361/2011-like (H3N2)
in vitro = conditions: dog
[14] = system: A/Puerto Rico/8/1934 (H1N1)
[15] = system: A/California/7/2009 (H1N1)
B/Lee/40 [16] = system: B/Lee/40
B/Brisbane/60/2008 [17] = system: B/Brisbane/60/2008
A/Perth/16/2009 (H3N2) [18] = system: A/Perth/16/2009 (H3N2)
[19] = system: A/Brisbane/10/2007 (H3N2)
[20] = system: A/Victoria/361/2011-like (H3N2)
A/Seoul/11/1988 (H3N2) [21] = system: A/Seoul/11/1988 (H3N2)
[22] = system: PR8 virus (viral proteins NP, HA, M1); type: cell-based, influenza A virus
[23] = system: influenza A viruses (PR8 and HK); test: microbe, parasite or virus in culture; conditions: PR8, MDCK, read-out: viability of infected MDCK cells
influenza B strain (Lee) = test: Chemical library screen, CPE reduction assay, influenza B; type: cell-based, influenza B virus; conditions: 20 µM
[24] = […], nylidrin 100 μM, OSV-C 10 μM, RBV 100 μM

SMILES	CC50 at 3 days [1] [µM]	EC50 [2] [µM]	EC50 (B/Lee/40 [3]) [µM]	EC50 [4] [µM]	EC50 (B/Brisbane/60/2008 [5]) [µM]	EC50 (A/Perth/16/2009 (H3N2) [6]) [µM]	EC50 [7] [µM]	EC50 [8] [µM]	EC50 [9] [µM]	S.I. (CC50/EC50), A/Hong Kong/8/1968 (H3N2) [10]	EC50 (A/Seoul/11/1988 (H3N2) [11]) [µM]	S.I. (CC50/EC50), A/Brisbane/59/2007 (H1N1) ([12]; MDCK cells)	EC50 [13] [µM]	S.I. (CC50/EC50), A/Puerto Rico/8/1934 (H1N1) ([14]; MDCK cells)	S.I. (CC50/EC50), A/California/7/2009 (H1N1) ([15]; MDCK cells)	further results
CN(C)C(=O)Oc1cc(OC(=O)N(C)C)cc(C(O)CNC(C)(C)C)c1 (centres unmarked) [Bambuterol, bambuterol]	> 900	> 100	> 100	> 100												
NC12CC3CC(CC(C3)C1)C2 [AMT, amantadine hydrochloride]	> 900	0.8 ± 0.1	> 100	> 100	> 100	> 100	1.2 ± 0.4	> 100	> 100	(>1200)	0.3 ± 0.1	(>750)	> 100			
CC(Cc1ccc(O)cc1)NCC(O)c1cc(O)cc(O)c1 (centres unmarked) [Fenoterol, fenoterol]		> 100	> 100	> 100												CC50 (in vitro): > 900 µM
CC(C)(C)NCC(O)c1cc(Cl)c(N)c(Cl)c1 (centres unmarked) [Clenbuterol, clenbuterol]		> 100	> 100	9.4 ± 4.6	> 100	> 100	12.9 ± 0.3	> 100	13.7 ± 3.6		> 100	(>69.8)	> 100	(>96.3)	(>65.9)	CC50 (in vitro): > 900 µM
NC(=O)c1ncn([C@@H]2O[C@H](CO)[C@@H](O)[C@H]2O)n1 [RBV, ribavirin]	> 900	15.7 ± 2.7	13.8 ± 0.2	18.4 ± 3.4	25.6 ± 0.3	33.8 ± 11.6	24.1 ± 0.5	12.6 ± 6.4	52.5 ± 1.5	(>57.5)	10.5 ± 4.2		33.4 ± 8.8			S.I. (CC50/EC50), B/Lee/40 (B/Lee/40 [16]): (>65.5); S.I. (CC50/EC50), B/Brisbane/60/2008 (B/Brisbane/60/2008 [17]): (>35.2); S.I. (CC50/EC50), A/Perth/16/2009 (H3N2) (A/Perth/16/2009 (H3N2) [18]): (>26.6); S.I. (CC50/EC50), A/Puerto Rico/8/1934 (H1N1) [14]: (>48.9); S.I. (CC50/EC50), A/Brisbane/10/2007 (H3N2) [19]: (>71.4); S.I. (CC50/EC50), A/Victoria/361/2011-like (H3N2) [20]: (>16.4); S.I. (CC50/EC50), A/Brisbane/59/2007 (H1N1) [12]: (>37.3); S.I. (CC50/EC50), A/Seoul/11/1988 (H3N2) (A/Seoul/11/1988 (H3N2) [21]): (>52.3); viral proteins NP, HA and M1 (western blot) [22]: not detected; S.I. (CC50/EC50), A/California/7/2009 (H1N1) [15]: (>17.2)
CC(NCCc1ccc(O)cc1)C(O)c1ccc(O)cc1 (centres unmarked) [Ritodrine, ritodrine]	> 900	> 100	> 100	> 100												
CC(CCc1ccccc1)NCC(O)c1ccc(O)c(C(N)=O)c1 (centres unmarked) [Labetalol, labetalol]	498.1 ± 0.5	44 ± 9.7	> 100	> 100	> 100	> 100	> 100	> 100	> 100	(>11.3)	> 100		> 100			
CC(CCc1ccccc1)NC(C)C(O)c1ccc(O)cc1 (centres unmarked) [Nylidrin, nylidrin]	549.2 ± 0.5	12.1 ± 1.6	> 100	7.2 ± 0.2	> 100	> 100	3.5 ± 1.6	> 100	1.7 ± 0.5		38.8 ± 19.4	(156.9)	> 100	(76.3)	(332.8)	S.I. (CC50/EC50), A/Puerto Rico/8/1934 (H1N1) ([14]; MDCK cells, listed as nylidrin): 76.3; viability at 20 µM [23]: 80%; CPE-reduction (influenza B strain (Lee)): no benefit; S.I. (CC50/EC50), A/Seoul/11/1988 (H3N2) (A/Seoul/11/1988 (H3N2) [21]; MDCK cells): (14.3); viral proteins NP, HA and M1 (western blot) [22, 24]: not detected
CCC(CC)O[C@@H]1C=C(C(=O)O)C[C@H](N)[C@H]1NC(C)=O [OSV-C, oseltamivir carboxylate]		< 0.005	0.8 ± 0.03	0.04 ± 0.01	53.1 ± 25.2	0.03 ± 0.02	0.02	0.53 ± 0.16	0.02	(>180,000)	< 0.005	(>58,065)	< 0.005	(>25,714)	(>58,065)	S.I. (CC50/EC50), B/Lee/40 (B/Lee/40 [16]): (>1125); S.I. (CC50/EC50), B/Brisbane/60/2008 (B/Brisbane/60/2008 [17]; MDCK cells): (>17.0); S.I. (CC50/EC50), A/Perth/16/2009 (H3N2) (A/Perth/16/2009 (H3N2) [18]; MDCK cells): (>30,000); CC50 at 3 days (in vitro): > 900 µM; S.I. (CC50/EC50), A/Brisbane/10/2007 (H3N2) [19]: (>1714); S.I. (CC50/EC50), A/Victoria/361/2011-like (H3N2) ([20]; MDCK cells): (>180,000); S.I. (CC50/EC50), A/Seoul/11/1988 (H3N2) (A/Seoul/11/1988 (H3N2) [21]; MDCK cells): (>180,000); viral proteins NP, HA and M1 (western blot) [22, 24]: not detected
CC(C(O)c1ccc(O)cc1)N1CCC(Cc2ccccc2)CC1 (centres unmarked) [Ifenprodil, ifenprodil]	488.2 ± 0.5	16.9 ± 3	> 100	6.6 ± 0.4	> 100	> 100	5.1 ± 0.3	> 100	1.1 ± 0.1	(29.0)	37.9 ± 7.7	(96.7)	> 100	(74.0)	(465.0)	
OC(CN1CCC(Cc2ccc(F)cc2)CC1)c1ccc(Cl)cc1 (centres unmarked) [Eliprodil, eliprodil]	> 900	> 44	> 100	> 100	> 100	> 100	53.1 ± 0.3	> 100	> 100	(>15.5)	> 100	(>16.9)	> 100			EC50 ([10]; read-out: EC50 against A/Hong Kong/8/1968 (H3N2)): 58.1 ± 6.4 µM
